Measurements from patent US20230322747A1, “OXADIAZOLE HDAC6 INHIBITORS AND USES THEREOF” (Eikonizo Therapeutics, Inc., priority 2022, published 2023).

Biological target: Human HDAC6 (Homo sapiens (Human), UniProt Q9UBN7)
Assay: HDAC6 enzymatic activity assay (Caliper endpoint or fluorogenic format)
Type: biochemical
Conditions: in vitro enzymatic

Chain of Human HDAC6 (Q9UBN7 whole entry): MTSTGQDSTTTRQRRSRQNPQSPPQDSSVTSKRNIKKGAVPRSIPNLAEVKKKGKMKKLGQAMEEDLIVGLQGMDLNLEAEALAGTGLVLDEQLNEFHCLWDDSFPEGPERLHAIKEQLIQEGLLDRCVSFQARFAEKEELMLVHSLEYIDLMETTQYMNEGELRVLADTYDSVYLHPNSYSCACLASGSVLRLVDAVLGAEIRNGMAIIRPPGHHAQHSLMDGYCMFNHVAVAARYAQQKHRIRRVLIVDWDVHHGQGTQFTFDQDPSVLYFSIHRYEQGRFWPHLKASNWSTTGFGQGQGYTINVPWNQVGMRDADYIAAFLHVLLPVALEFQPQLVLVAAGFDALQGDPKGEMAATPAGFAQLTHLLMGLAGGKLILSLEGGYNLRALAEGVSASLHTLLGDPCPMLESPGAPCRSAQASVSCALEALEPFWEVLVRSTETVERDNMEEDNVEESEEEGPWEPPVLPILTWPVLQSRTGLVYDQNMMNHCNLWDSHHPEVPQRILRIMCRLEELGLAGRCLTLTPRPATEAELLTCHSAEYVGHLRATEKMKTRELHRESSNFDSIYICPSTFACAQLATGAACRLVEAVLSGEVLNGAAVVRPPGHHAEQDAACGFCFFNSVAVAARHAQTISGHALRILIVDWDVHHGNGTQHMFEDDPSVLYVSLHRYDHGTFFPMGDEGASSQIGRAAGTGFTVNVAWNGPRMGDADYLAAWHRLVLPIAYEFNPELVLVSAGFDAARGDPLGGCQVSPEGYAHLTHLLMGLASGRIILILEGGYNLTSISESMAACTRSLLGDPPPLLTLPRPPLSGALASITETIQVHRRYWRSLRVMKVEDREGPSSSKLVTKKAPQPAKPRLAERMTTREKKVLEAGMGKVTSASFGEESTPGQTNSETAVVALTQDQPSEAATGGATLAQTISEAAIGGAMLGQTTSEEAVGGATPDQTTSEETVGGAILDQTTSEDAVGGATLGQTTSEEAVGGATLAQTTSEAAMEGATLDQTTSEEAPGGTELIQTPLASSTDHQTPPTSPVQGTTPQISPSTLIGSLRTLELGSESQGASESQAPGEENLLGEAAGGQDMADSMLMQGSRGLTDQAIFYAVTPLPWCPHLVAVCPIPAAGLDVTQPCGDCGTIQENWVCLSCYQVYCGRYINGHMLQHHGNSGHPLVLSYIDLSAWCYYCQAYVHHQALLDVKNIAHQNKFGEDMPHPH

IC50	SMILES
1 to 100 nM	Cc1noc2cc(OCc3ncc(-c4nnc(C(F)F)o4)cn3)ccc12 [Compound 136]
1 to 100 nM	N#Cc1ccccc1OCc1ncc(-c2nnc(C(F)F)o2)cc1F [Compound 127]
1 to 100 nM	FC(F)c1nnc(-c2ccc(COc3ccc(-c4nc5ccccc5[nH]4)cc3)nc2)o1 [Compound 207]
1 to 100 nM	FC(F)c1nnc(-c2ccc(COc3nccn4ccnc34)nc2)o1 [Compound 86, 2-(difluoromethyl)-5-(6-((imidazo[1,2-a]pyrazin-8-yloxy)methyl)pyridin-3-yl)-1,3,4-oxadiazole]
1 to 100 nM	FC(F)c1nnc(-c2ccc(COc3ccnc(Cl)c3)nc2)o1 [Compound 189, 2-(6-(((2-Chloropyridin-4-yl)oxy)methyl)pyridin-3-yl)-5-(difluoromethyl)-1,3,4-oxadiazole]
100 to 1000 nM	FC(F)c1nnc(-c2ccc(COc3ncco3)nc2)o1 [Compound 100]
1 to 100 nM	Fc1cc(-c2nnc(C(F)F)o2)cnc1COc1ccc2ccncc2c1 [Compound 157]
1 to 100 nM	Fc1cc(-c2nnc(C(F)F)o2)cnc1COc1ccc2cccnc2c1 [Compound 124]
1 to 100 nM	Fc1cc(-c2nnc(C(F)F)o2)cnc1COc1ccc2cnccc2c1 [Compound 155]
100 to 1000 nM	FC(F)c1nnc(-c2ccc(COc3ncccn3)nc2)o1 [Compound 78]
1 to 100 nM	Fc1cc(-c2nnc(C(F)F)o2)cnc1COc1cccc2ncccc12 [Compound 132]
1 to 100 nM	Cn1cc2cc(OCc3ncc(-c4nnc(C(F)F)o4)cc3F)ccc2n1 [Compound 178, 2-(Difluoromethyl)-5-(5-fluoro-6-(((2-methyl-2H-indazol-5-yl)oxy)methyl)pyridin-3-yl)-1,3,4-oxadiazole]
1 to 100 nM	N#Cc1ccc(OCc2ncc(-c3nnc(C(F)F)o3)cc2F)cc1 [Compound 165]
1 to 100 nM	Fc1cc(-c2nnc(C(F)F)o2)cnc1COc1cccc2ncncc12 [Compound 179, 2-(Difluoromethyl)-5-(5-fluoro-6-((quinazolin-5-yloxy)methyl)pyridin-3-yl)-1,3,4-oxadiazole]
1 to 100 nM	Cn1cnc2c(OCc3ccc(-c4nnc(C(F)F)o4)cn3)cccc21 [Compound 208]
1 to 100 nM	FC(F)c1nnc(-c2ccc(COc3ccncn3)nc2)o1 [Compound 104]
1 to 100 nM	Cn1c(-c2ccc(OCc3ccc(-c4nnc(C(F)F)o4)cn3)cc2)nc2ccccc21 [Compound 200]
100 to 1000 nM	FC(F)c1nnc(-c2ccc(COc3ccc(C(F)(F)F)cn3)nc2)o1 [Compound 94]
1 to 100 nM	Cn1c(-c2cccc(OCc3ccc(-c4nnc(C(F)F)o4)cn3)c2)nc2ccccc21 [Compound 201]
1 to 100 nM	N#Cc1cccc(OCc2ncc(-c3nnc(C(F)F)o3)cc2F)c1 [Compound 167]
1 to 100 nM	FC(F)c1nnc(-c2ccc(COc3cccc(-c4nc5ccccc5[nH]4)c3)nc2)o1 [Compound 206]
1 to 100 nM	FC(F)c1nnc(-c2cnc(COc3ccc4ncccc4c3)nc2)o1 [Compound 152]

IC50	SMILES
1 to 100 nM	Cc1cccc2c(OCc3ccc(-c4nnc(C(F)F)o4)cn3)ncnc12 [Compound 96]
1 to 100 nM	Fc1ccc(OCc2ncc(-c3nnc(C(F)F)o3)cc2F)cc1F [Compound 129]
1000 to 10000 nM	CC(Oc1ccc(F)cc1)c1ccc(-c2nnc(C(F)F)o2)cn1 (stereo not drawn) [AAA, 2-(Difluoromethyl)-5-(6-(1-(4-fluorophenoxy)ethyl)pyridin-3-yl)-1,3,4-oxadiazole]
1 to 100 nM	Cn1cnc2ccc(OCc3ccc(-c4nnc(C(F)F)o4)cn3)cc21 [Compound 213]
1 to 100 nM	FC(F)c1nnc(-c2cnc(COc3ccc4nccnc4c3)nc2)o1 [Compound 150]
1 to 100 nM	Fc1cc(-c2nnc(C(F)F)o2)cnc1COc1cccn2ccnc12 [Compound 123]
1 to 100 nM	Fc1cc(-c2nnc(C(F)F)o2)cnc1COc1ccc2ncccc2c1 [Compound 153]
1 to 100 nM	FC(F)c1nnc(-c2ccc(COc3cnc(C(F)(F)F)nc3)nc2)o1 [Compound 205]
1 to 100 nM	Cn1nccc1-c1ccc(OCc2ccc(-c3nnc(C(F)F)o3)cn2)cc1 [Compound 199, 2-(Difluoromethyl)-5-(6-((4-(1-methyl-1H-pyrazol-5-yl)phenoxy)methyl)pyridin-3-yl)-1,3,4-oxadiazole]
1 to 100 nM	Cc1noc2cc(OCc3ncc(-c4nnc(C(F)F)o4)cc3F)ccc12 [Compound 137, 6-((5-(5-(difluoromethyl)-1,3,4-oxadiazol-2-yl)-3-fluoropyridin-2-yl)methoxy)-3-methylbenzo[d]isoxazole]
1 to 100 nM	Cc1nc2ccc(OCc3ccc(-c4nnc(C(F)F)o4)cn3)cc2o1 [Compound 38]
1 to 100 nM	FC(F)c1nnc(-c2cnc(COc3cccc4ocnc34)nc2)o1 [Compound 144]
1 to 100 nM	Fc1cc(-c2nnc(C(F)F)o2)cnc1COc1cccc2cccnc12 [Compound 130]
100 to 1000 nM	FC(F)c1nnc(-c2ccc(C(F)(F)Oc3cccc4ccccc34)nc2)o1 [Compound 14, 2-(6-(difluoro(naphthalen-1-yloxy)methyl)pyridin-3-yl)-5-(difluoromethyl)-1,3,4-oxadiazole]
1 to 100 nM	Cc1nc2cc(OCc3ncc(-c4nnc(C(F)F)o4)cc3F)ccc2o1 [Compound 141]
1 to 100 nM	Cn1ncc2cc(OCc3ncc(-c4nnc(C(F)F)o4)cc3F)ccc21 [Compound 139, 2-(difluoromethyl)-5-(5-fluoro-6-(((1-methyl-1H-indazol-5-yl)oxy)methyl)pyridin-3-yl)-1,3,4-oxadiazole]
100 to 1000 nM	FC(F)c1nnc(-c2ccc(COc3ccc4c(c3)CCNC4)nc2)o1 [Compound 170]
1 to 100 nM	FC(F)c1nnc(-c2cnc(COc3ccc4ocnc4c3)nc2)o1 [Compound 142]
1 to 100 nM	Cc1nc2cc(OCc3ncc(-c4nnc(C(F)F)o4)cn3)ccc2o1 [Compound 140]
1 to 100 nM	Fc1cc(-c2nnc(C(F)F)o2)cnc1COc1ccc2nccnc2c1 [Compound 151]
1 to 100 nM	FC(F)c1nnc(-c2ccc(COc3nnc4ccccn34)nc2)o1 [Compound 87]
1 to 100 nM	FC(F)c1nnc(-c2ccc(COc3ncnc4cc(Cl)ccc34)nc2)o1 [Compound 98]

IC50	SMILES
1 to 100 nM	Cn1ccc(OCc2ccc(-c3nnc(C(F)F)o3)cn2)n1 [Compound 66]
1 to 100 nM	Fc1cc(-c2nnc(C(F)F)o2)cnc1COc1cccc2nccnc12 [Compound 159]
1 to 100 nM	FC(F)c1nnc(-c2cnc(COc3cccnc3)nc2)o1 [Compound 162]
1 to 100 nM	N#Cc1ccc(OCc2ncc(-c3nnc(C(F)F)o3)cn2)cc1 [Compound 164]
1 to 100 nM	FC(F)c1nnc(-c2cnc(COc3cccc4cncnc34)nc2)o1 [Compound 160]
1 to 100 nM	FC(F)c1nnc(-c2cnc(COc3ccc4ccncc4c3)nc2)o1 [Compound 156]
1 to 100 nM	Fc1cncnc1OCc1ccc(-c2nnc(C(F)F)o2)cn1 [Compound 107]
100 to 1000 nM	CN1CCc2cc(OCc3ccc(-c4nnc(C(F)F)o4)cn3)ccc2C1 [Compound 121]
1 to 100 nM	FC(F)c1nnc(-c2cnc(COc3cccc4nccnc34)nc2)o1 [Compound 158]
1 to 100 nM	Cn1cnc2cc(OCc3ncc(-c4nnc(C(F)F)o4)cn3)ccc21 [Compound 146]
1 to 100 nM	Fc1cc(-c2nnc(C(F)F)o2)cnc1COc1ccc2ncncc2c1 [Compound 181, 2-(Difluoromethyl)-5-(5-fluoro-6-((quinazolin-6-yloxy)methyl)pyridin-3-yl)-1,3,4-oxadiazole]
100 to 1000 nM	FC(F)c1nnc(-c2ccc(COc3cccnn3)nc2)o1 [Compound 103]
1 to 100 nM	Fc1ccc(OCc2ncc(-c3nnc(C(F)F)o3)cn2)cc1F [Compound 22]
100 to 1000 nM	Cn1ccnc1OCc1ccc(-c2nnc(C(F)F)o2)cn1 [Compound 105]
1 to 100 nM	CNC(=O)c1cccc(OCc2ccc(-c3nnc(C(F)F)o3)cn2)c1 [Compound 197, 3-((5-(5-(difluoromethyl)-1,3,4-oxadiazol-2-yl)pyridin-2-yl)methoxy)-N-methylbenzamide]
1 to 100 nM	Cc1ccc2ncnc(OCc3ccc(-c4nnc(C(F)F)o4)cn3)c2c1 [Compound 95]
1 to 100 nM	FC(F)c1nnc(-c2ccc(COc3cccc4ccncc34)nc2)o1 [Compound 33]
1 to 100 nM	Fc1cc(-c2nnc(C(F)F)o2)cnc1COc1ccc2cncnc2c1 [Compound 180, 2-(difluoromethyl)-5-(5-fluoro-6-((quinazolin-7-yloxy)methyl)pyridin-3-yl)-1,3,4-oxadiazole]
1 to 100 nM	Cn1ncc2cc(OCc3ncc(-c4nnc(C(F)F)o4)cn3)ccc21 [Compound 138]
1 to 100 nM	Fc1cc(-c2nnc(C(F)F)o2)cnc1COc1cccc2cncnc12 [Compound 161]
100 to 1000 nM	FC(F)c1nnc(-c2ccc(CO[C@@H]3C[C@H]4CC[C@@H](C3)O4)nc2)o1 [Compound 110]
1 to 100 nM	Cc1ncc(F)c(OCc2ccc(-c3nnc(C(F)F)o3)cn2)n1 [Compound 81]

SMILES	IC50
CN1[C@@H]2CC[C@H]1C[C@H](OCc1ccc(-c3nnc(C(F)F)o3)cn1)C2 [Compound 113]	1000 to 10000 nM
FC(F)c1nnc(-c2ccc(COc3ccccc3-c3ccccc3)nc2)o1 [Compound 187, 2-(6-(([1,1′-biphenyl]-2-yloxy)methyl)pyridin-3-yl)-5-(difluoromethyl)-1,3,4-oxadiazole]	1000 to 10000 nM
FC(F)c1nnc(-c2ccc(COc3cccc(-c4ccccc4)c3)nc2)o1 [Compound 188, 2-(6-(([1,1′-Biphenyl]-3-yloxy)methyl)pyridin-3-yl)-5-(difluoromethyl)-1,3,4-oxadiazole]	100 to 1000 nM
FC(F)c1nnc(-c2ccc(COCC3CC4CCC(C3)N4)nc2)o1 (stereo not drawn) [Compound 23]	100 to 1000 nM
FC(F)c1nnc(-c2ccc(COc3ccc(-c4ccccc4)cc3)nc2)o1 [Compound 185, 2-(6-(([1,1′-Biphenyl]-4-yloxy)methyl)pyridin-3-yl)-5-(difluoromethyl)-1,3,4-oxadiazole]	1 to 100 nM
Fc1cc(-c2nnc(C(F)F)o2)cnc1COc1ccc2ccccc2c1 [Compound 182, 2-(Difluoromethyl)-5-(5-fluoro-6-((naphthalen-2-yloxy)methyl)pyridin-3-yl)-1,3,4-oxadiazole]	1 to 100 nM
